Patent publication US12274703B2, “Compositions and methods of treatment for neurological disorders comprising a dementia” (Gliapharm SA, priority 2017, dated 2025)
Where a name gives a salt, the structure may show the parent alone. Read-outs that look alike come from different tables or passages of the source.

Tests used:
[1] = system: astrocytes; assay: MTT viability assay; assay type: cell-based; conditions: Mus musculus, Astrocyte, cellular toxicity, 0-200 uM
Experimental: (§1) Primary cultures of cerebrocortical astrocytes were obtained from 1-2-day-old OF1 mouse pups (Charles River Laboratories). Briefly, cortices were isolated and minced in small pieces under a dissecting microscope. The cells were incubated for 30 min at 37° C. in a solution containing 20 U/ml of papain enzyme (Worthington Biochemical), L-cysteine 1 mM (Sigma), and 10 kU/ml DNase I (Worthington Biochemical) for an enzymatic dissociation. Papain activity was stopped by the addition of fetal calf serum (FCS) to the solution, and a single-cell suspension was then obtained by mechanical dissociation, which consisted in cells trituration in a DMEM (D7777, Sigma-Aldrich) medium (supplemented with 44 mm NaHCO3, and 10 ml/L antibiotic/antimycotic solution) containing 10% FCS. The cells were seeded at an average density of 6×10^4 cells/cm^2 in poly-D-lysine-coated 96, 12 or 6-well culture plates, depending on their use, and incubated at 37° C. in a humidified atmosphere containing 5% CO2/95% air. Culture medium was renewed twice per week. Cells were stimulated and harvested between DIV14 and DIV17, when confluence and cell growth were optimal.
For cell toxicity determination, astrocytes in 96-well plates were stimulated 24 h (37° C. 5% CO2/95% air) with a gradient ranging from 0.1 to 200 μM of tested compounds. After stimulation, 5 mg/ml thiazol blue tetrazolium bromide (MTT, Sigma-Aldrich) in warm D5030 complete medium was added to each well, and cells were incubated for 4 h at 37° C. (5% CO2). The medium was then removed by aspiration, and the reaction was stopped by the addition of 50 μl DMSO per well.
The amount of reduced MTT (formazan) solubilized in DMSO was then determined spectrophotometrically using absorbance at 570 nm (Safire 2; Tecan).
MTT cellular viability assay was performed on astrocytes exposed to molecules from the Prestwick library (Prestwick hits; concentrations ranging from 0 uM to 200 uM).
MTT cellular viability assay was performed on astrocytes exposed to CDC54K hits (concentrations ranging from 0 uM to 200 uM).

[2] = system: primary astrocytes; assay: High throughput screening for lactate secretion: acidification of extracellular medium (SNARF5); assay type: cell-based, mouse; parameters: key to Score / HTS Score (lactate) / HTS Score (SNARF5) / Score_SNARF: fraction of positive control activity (positive control = 100%); conditions: for Emax at 10 µM: Mus musculus, Astrocyte, 1.5 h; for Emax at 10 µM / Score / HTS Score (SNARF5): 90 min, 10 uM; for Score_SNARF: primary screening confirmation (SNARF5)
Summary of the method: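 Mouse cortical astrocytes (DIV17) stimulated 90 min at 10 uM compound (1% DMSO) in low-bicarbonate DMEM, 5 mM glucose, with SNARF-5F; extracellular acidification read as 630/580 nm emission ratio (exc 480 nm). Duplicates; score as % of CCCP 2 uM control, hits >3× summed SD above DMSO.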

[3] = system: astrocytes; assay: Extracellular lactate quantification; assay type: cell-based, mouse; conditions: for EC50: Mus musculus, Astrocyte; for Score_LACTATE: Appendix I, secondary screening, dosage of extracellular lactate
Experimental: as §1
Secretion of L-lactate was determined in the extracellular medium of 96-well plated astrocytes after 90 min stimulation (at 37° C., in 5% CO2/95% air conditions) with the drug of interest. The stimulation medium was composed of D5030 medium (completed with D-glucose 5 mM and 44 mM sodium bicarbonate) for 90 min in concentrations ranging from 0 to 100 μM.
Briefly, 200 μl of a Glycine (Sigma)-Semicarbazide (Acros) 0.2M pH 10 buffer containing 3 mM NAD (Roche) and LDH 14 U/ml (Roche) was added to each well of a 96-well plate containing 30 μl aliquots complemented with 20 μl fresh complete D5030 medium. Samples were incubated at 37° C. for 1 h. After samples cooled down at room temperature, the fluorescence intensity (340 nm excitation/450 nm emission) that represents the amount of NADH produced was measured, and lactate concentration values were determined from a standard curve of L-lactate.
Statistical analysis consisted in ANOVA followed by Fisher LSD post-hoc test for pair-wise comparisons.
Levels of lactate secreted by astrocytes were measured in the extracellular medium at 90 min after stimulation with hits (molecules) from the CDC54K library.

[4] = system: astrocytes; assay: Intracellular glycogen quantification; assay type: cell-based, mouse; conditions: 10 μM, 3 h
[5] = system: astrocytes; assay: Production of H2O2 (mitochondrial activity); assay type: cell-based; conditions: Mus musculus, Astrocyte, 1.5 h; CDC54K hits; 0-200 uM, 90 min
Experimental: as §1
Hydrogene peroxide (H2O2) released in the supernatant is detected enzymatically with Amplex red (Zhou, Diwu et al. 1997). Oxidation of Amplex red is catalysed by the horseradish peroxidase in presence of H2O2 into highly fluorescent resorufin. Fluorescence measure is read at 545 nm extinction, 590 nm emission. The amount of H2O2 was expressed relatively to the proteins content extracted from the cells in culture. […]
Mitochondrial respiration in astrocytes was measured through production of H2O2 at 90 min after stimulation with CDC54K hits (ranging from 0 to 200 uM).

[6] = Prestwick hits, activity relative to positive control CCCP 2 uM, read-out: Score
[7] = Prestwick hits, relative to positive control CCCP 2 uM, read-out: HTS Score (lactate)
[8] = 1.5 h, Prestwick hits, 0-100 μM, 90 min, read-out: Lactate EC50
[9] = Appendix I, primary screening, relative to positive control, read-out: Score
[10] = CDC54K hits, relative to positive control CCCP 2 uM, read-out: HTS Score (SNARF5)
[11] = 1.5 h, CDC54K hits, 0-100 uM, 90 min, read-out: Lactate EC50
[12] = Appendix I, primary screening, relative to positive control
[13] = CDC54K hits, relative to positive control CCCP 2 uM
[14] = Appendix II, lactate secretion, read-out: EC50

Compound: N=C(N)N1CCc2ccccc2C1 [Debrisoquin sulfate]
- IC50 ([1]; Prestwick hits, 24 h): > 200 µM
- Emax at 10 µM [2, 6]: 23.8%
- Emax at 10 µM [2, 7]: 23.8%
- EC50 [3, 8]: 2.73 µM

Compound: CC[N+](CC)(CC(=O)Nc1c(C)cccc1C)Cc1ccccc1 [Denatonium benzoate]
- IC50 ([1]; Prestwick hits, 24 h): 178 µM
- Emax at 10 µM [2, 6]: 11%
- Emax at 10 µM [2, 7]: 11%
- EC50 [3, 8]: 12.2 µM

Compound: C[N+]1(C)CCC(=C(c2ccccc2)c2ccccc2)CC1 [Diphemanil methylsulfate]
- IC50 ([1]; Prestwick hits, 24 h): 13.9 µM
- Emax at 10 µM [2, 6]: 48.4%
- Emax at 10 µM [2, 7]: 48.4%
- EC50 [3, 8]: 1.17 µM

Compound: O=C(COc1ccc(Cl)cc1)N1CCN(Cc2ccc3c(c2)OCO3)CC1 [Fipexide hydrochloride]
- IC50 ([1]; Prestwick hits, 24 h): 44 µM
- Emax at 10 µM [2, 6]: 16.6%
- Emax at 10 µM [2, 7]: 16.6%
- EC50 [3, 8]: 5.16 µM
- Glycogen (statistical significance of glycogen degradation) ([4]; Prestwick hits): ns

Compound: COC1=C(OC)C(=O)C(CCCCCCCCCCO)=C(C)C1=O [Idebenone]
- IC50 ([1]; Prestwick hits, 24 h): 112 µM
- Emax at 10 µM [2, 6]: 25.9%
- Emax at 10 µM [2, 7]: 25.9%
- EC50 [3, 8]: 0.602 µM

Compound: COc1ccccc1NC(=O)Cc1nn(C)c(=O)c2ccccc12 [K851-0113]
- IC50 [5]: > 200 µM
- IC50 ([1]; CDC54K hits): > 200 µM
- Emax at 10 µM [2, 9]: 72.2%
- Emax at 10 µM [2, 10]: 72.2%
- EC50 [3, 11]: 2 µM
- Glycogen (statistical significance of glycogen degradation) ([4]; CDC54K hits): ns

Compound: CSc1cccc(NS(=O)(=O)c2ccc3onc(C(=O)N4CCCC4)c3c2)c1 [L995-0125]
- IC50 [5]: 173 µM
- IC50 ([1]; CDC54K hits): > 200 µM
- Score_SNARF ([2]; Appendix I): 0.8016
- Score [2, 12]: 0.8545
- HTS Score (SNARF5) [2, 13]: 0.854
- Score_LACTATE [3]: 0.9122
- EC50 [3, 11]: 2 µM
- Glycogen (statistical significance of glycogen degradation) ([4]; CDC54K hits): ns

Compound: COc1ccc(Cc2nccc3cc(OC)c(OC)cc23)cc1OC [Papaverine hydrochloride]
- IC50 ([1]; Prestwick hits, 24 h): > 200 µM
- Emax at 10 µM [2, 6]: 35.5%
- Emax at 10 µM [2, 7]: 35.5%
- EC50 [3, 8]: 0.629 µM

Compound: [H]/N=C(\N/C(=N/[H])Nc1ccc(Cl)cc1)NC(C)C [Proguanil hydrochloride]
- IC50 ([1]; Prestwick hits, 24 h): 48.1 µM
- Emax at 10 µM [2, 6]: 55.5%
- Emax at 10 µM [2, 7]: 55.5%
- EC50 [3, 8]: 0.854 µM

Compound: CC(C)[N+](C)(CCOC(=O)C1c2ccccc2Oc2ccccc21)C(C)C [Propantheline bromide]
- IC50 ([1]; Prestwick hits, 24 h): 12.8 µM
- Emax at 10 µM [2, 6]: 49.1%
- Emax at 10 µM [2, 7]: 49.1%
- EC50 [3, 8]: 11.7 µM

Compound: Fc1ccc(-c2cc3n(n2)CCCN(Cc2ccncc2)C3)cc1 [T202-1455]
- IC50 [5]: > 200 µM
- IC50 ([1]; CDC54K hits): > 200 µM
- Emax at 10 µM [2, 9]: 97.1%
- Emax at 10 µM [2, 10]: 97.1%
- EC50 [3, 11]: 15 µM
- Glycogen (statistical significance of glycogen degradation) ([4]; CDC54K hits): ns

Compound: CCc1ccc(S(=O)(=O)N2CCSC2c2ccc(OC)c(OC)c2)cc1 (centres unmarked) [T5463586]
- IC50 [5]: > 200 µM
- IC50 ([1]; CDC54K hits): > 200 µM
- Score_SNARF ([2]; Appendix I): 0.5553
- Score [2, 12]: 0.7707
- HTS Score (SNARF5) [2, 13]: 0.77
- Score_LACTATE [3]: 0.3936
- EC50 [3, 11]: 10 µM

Compound: CC(Nc1ncnc2sccc12)c1ccccn1 (centres unmarked) [T5672380]
- Emax at 10 µM [2, 9]: 76.5%
- EC50 [3, 14]: 3.91 µM

Compound: COc1ccccc1NC(=O)CO/N=C(/N)c1cccc(C(F)(F)F)c1 [T5770640]
- EC50 [3, 14]: 4.86 µM

Compound: COc1cc(C)c(NC(=O)Cc2ccc(Cl)c(Cl)c2)cc1OC [T5783794]
- EC50 [3, 14]: 6.11 µM

Compound: c1nc(NCc2ccc3c(c2)OCO3)c2sccc2n1 [T5787526]
- EC50 [3, 14]: 3.89 µM

Compound: CC(=O)Nc1cccc(NC(=O)CSc2nc(C)c(C)n2C2CCCC2)c1 [T5788339]
- EC50 [3, 14]: 3.9 µM

Compound: CCCCn1c(CN(C)Cc2ccccc2)nc2c1c(=O)n(C)c(=O)n2C [T5788545]
- EC50 [3, 14]: 3.59 µM

Compound: c1ccc(CN2CCOCC2)c(CNc2ncnc3ccsc23)c1 [T5790476]
- EC50 [3, 14]: 3.98 µM
